Measured values: patent US20120064121A1, “PYRIDINE COMPOUNDS FOR INFLAMMATION AND IMMUNE-RELATED USES” (SYNTA PHARMACEUTICALS CORP., priority 2008, published 2012)
Where a name gives a salt, the structure may show the parent alone.

These compounds were tested on IL-2 production (assay: Inhibition of IL-2 production in PHA-activated Jurkat cells (ELISA)). Conditions: Homo sapiens, Jurkat, 20 h, PHA 2.5 μg/mL, IL-2 ELISA.
Format: cell-based
Method: Jurkat cells were placed in a 96 well plate (0.5 million cells per well in 1% FBS medium) then a test compound of this invention was added at different concentrations. After 10 minutes, the cells were activated with PHA (final concentration 2.5 μg/mL) and incubated for 20 hours at 37° C. under CO2. The final volume was 200 μL. Following incubation, the cells were centrifuged and the supernatants collected and stored at −70° C. prior to assaying for IL-2 production. A commercial ELISA kit (IL-2 Eli-pair, Diaclone Research, Besancon, France) was used to detect production of IL-2, from which dose response curves were obtained. The IC50 value was calculated as the concentration at which 50% of maximum IL-2 production after stimulation was inhibited versus a non-stimulation control.

| IC50 | SMILES |
| --- | --- |
| 6 nM | O=C(Nc1ccc(-c2cc(-c3cccnc3)ccc2Cl)cn1)c1c(F)cccc1F [Compound 18, N-(5-(2-chloro-5-(pyridin-3-yl)phenyl)pyridin-2-yl)-2,6-difluorobenzamide] |
| 348 nM | Cc1cc[nH]c1C(=O)Nc1ccc(-c2cc(-c3nccs3)ccc2Cl)cn1 [Compound 15, N-(5-(2-chloro-5-(thiazol-2-yl)phenyl)pyridin-2-yl)-3-methyl-1H-pyrrole-2-carboxamide] |
| 81 nM | Cc1ncsc1C(=O)Nc1ccc(-c2cc(-c3nccs3)ccc2Cl)cn1 [Compound 17, N-(5-(2-chloro-5-(thiazol-2-yl)phenyl)pyridin-2-yl)-4-methylthiazole-5-carboxamide] |
| 11 nM | O=C(Nc1ccc(-c2cc(-c3nccs3)ccc2Cl)cn1)c1ccncc1F [Compound 8, N-(5-(2-chloro-5-(thiazol-2-yl)phenyl)pyridin-2-yl)-3-fluoroisonicotinamide] |
| 48 nM | Cc1ccc(-c2ccno2)cc1-c1ccc(NCc2c(F)cccc2F)cn1 [Compound 3, N-(2,6-difluorobenzyl)-6-(5-(isoxazol-5-yl)-2-methylphenyl)pyridin-3-amine] |
| 3 nM | Cc1ccc(-c2cccnc2)cc1-c1ccc(NC(=O)c2c(F)cccc2F)nc1 [Compound 6, 2,6-difluoro-N-(5-(2-methyl-5-(pyridin-3-yl)phenyl)pyridin-2-yl)benzamide] |
| 66 nM | O=C(Nc1ccc(-c2cc(-c3nccs3)ccc2Cl)cn1)c1c(F)cccc1C(F)(F)F [Compound 13, N-(5-(2-chloro-5-(thiazol-2-yl)phenyl)pyridin-2-yl)-2-fluoro-6-(trifluoromethyl)benzamide] |
| 91 nM | Cn1cncc1C(=O)Nc1ccc(-c2cc(-c3nccs3)ccc2Cl)cn1 [Compound 16, N-(5-(2-chloro-5-(thiazol-2-yl)phenyl)pyridin-2-yl)-1-methyl-1H-imidazole-5-carboxamide] |
| 17 nM | Fc1cccc(F)c1CNc1ccc(-c2cc(-c3ncco3)ccc2Cl)cn1 [Compound 5, 5-(2-chloro-5-(oxazol-2-yl)phenyl)-N-(2,6-difluorobenzyl)pyridin-2-amine] |
| 10 nM | O=C(Nc1ccc(-c2cc(-c3nccs3)ccc2Cl)cn1)c1c(F)cccc1Cl [Compound 12, 2-chloro-N-(5-(2-chloro-5-(thiazol-2-yl)phenyl)pyridin-2-yl)-6-fluorobenzamide] |
| 12 nM | Cc1ccc(-c2ncccn2)cc1-c1ccc(NC(=O)c2c(F)cccc2F)nc1 [Compound 7, 2,6-difluoro-N-(5-(2-methyl-5-(pyrimidin-2-yl)phenyl)pyridin-2-yl)benzamide] |
| 71 nM | O=C(Nc1ccc(-c2cc(-c3nccs3)ccc2Cl)nc1)c1ccccc1C(F)(F)F [Compound 14, N-(6-(2-chloro-5-(thiazol-2-yl)phenyl)pyridin-3-yl)-2-(trifluoromethyl)benzamide] |
| 13 nM | O=C(Nc1ccc(-c2cc(-c3nccs3)ccc2Cl)cn1)c1ccccc1F [Compound 11, N-(5-(2-chloro-5-(thiazol-2-yl)phenyl)pyridin-2-yl)-2-fluorobenzamide] |
| 19 nM | Fc1cccc(F)c1CNc1ccc(-c2cc(-c3nccs3)ccc2Cl)nc1 [Compound 4, 6-(2-chloro-5-(thiazol-2-yl)phenyl)-N-(2,6-difluorobenzyl)pyridin-3-amine] |

Same assay, conditions: PHA 2.5 μg/mL, 20 hours, IL-2 ELISA

| IC50 | SMILES |
| --- | --- |
| > 1000 nM | Cc1ccc(-c2cccnc2)cc1-c1ccc(NC(=O)c2c(F)cccc2Cl)nc1 [Compound 9, 2-chloro-6-fluoro-N-(5-(2-methyl-5-(pyridin-3-yl)phenyl)pyridin-2-yl)benzamide] |
| 56 nM | Fc1cccc(F)c1CNc1ccc(-c2cc(-c3nccs3)ccc2Cl)cn1 [Compound 1, 5-(2-chloro-5-(thiazol-2-yl)phenyl)-N-(2,6-difluorobenzyl)pyridin-2-amine] |

Same assay, conditions: PHA 2.5 μg/mL, 20 hours, IL-2 ELISA, hydrochloride

| IC50 | SMILES |
| --- | --- |
| 21 nM | Fc1cccc(F)c1CNc1ccc(-c2cc(-c3nccs3)ccc2Cl)cn1 [Compound 2, 5-(2-chloro-5-(thiazol-2-yl)phenyl)-N-(2,6-difluorobenzyl)pyridin-2-amine hydrochloride] |
| 7 nM | Cc1ccc(-c2cccnc2)cc1-c1ccc(NC(=O)c2c(F)cccc2Cl)nc1 [Compound 10, 2-chloro-6-fluoro-N-(5-(2-methyl-5-(pyridin-3-yl)phenyl)pyridin-2-yl)benzamide hydrochloride] |
